Laboratory results: paper doi:10.1101/2021.11.15.468710v2 (biorxiv, 2021)
pIC50: −log10 of the molar value.

Target: intact V-ATPase (purified yeast V-ATPase) (Saccharomyces cerevisiae, UniProt P23968+P25515+P32563+P32842)
Test: enzyme-coupled ATPase assay
Format: biochemical

Work on `CO/C1=C\C(C)=C\[C@@H](C)[C@@H](O)[C@@H](C)C/C(C)=C/C=C/[C@H](OC)[C@@H]([C@@H](C)[C@@H](O)[C@H](C)[C@@]2(O)C[C@@H](O)[C@H](C)[C@@H](C(C)C)O2)OC1=O` [bafilomycin A1] yielded a pIC50 of over 8.95.
